Tests used:
Gbe^ys/ys mice = assay: Survival, weight and motor phenotypes in APBD mouse model; format: in vivo
Source text: Pictures of 7-months old Gbe^ys/ys mice treated with vehicle (1L), or Compound 1 (1M) for 3 months prior to photography.
The presented experiments combine in vivo, ex vivo and in vitro studies on the therapeutic potential of the newly discovered compound Compound 1 for treating APBD. In the in vivo section, the inventors have tested Compound 1 for its capacity to correct disease phenotypes in Gbe^ys/ys female mice. Two arms, 5% DMSO vehicle and Compound 1, of initially n=7-9 animals each were used. […] Additional open field, gait, and extension reflex tests (FIGS. 1E-1H) also included a C57BL/6 wild type control arm of n=9 animals. Animals were excluded from the experiment if weight was reduced by >10% between sequential weightings or by >20% from initiation. […] 150 μL of 250 mg/kg Compound 1 in 5% DMSO were injected twice a week. Vehicle control was 5% DMSO. Injection was intravenous (IV) for the first month, followed by subcutaneous (SC) injection due to lack of injection space and scaring in animal tails. The inventors initiated the injections either at the age of 4 months, two months prior to disease onset, assuming a preferred prophylactic effect, or at the 6 months age of onset for comparison. Treatment was continued until the age of 10 months. The effect of Compound 1 on various motor parameters was tested approximately every two weeks. At the end of these experiments, some of the mice were sacrificed by cervical dislocation and tissues from n=2 wild type, n=7 Gbe^ys/ys vehicle-treated, and n=9 Compound 1-treated mice were collected, sectioned, fixed, and stained for diastase-resistant PG by PAS (FIGS. 2A-2C). Tissue glycogen was determined biochemically as described. In addition, Compound 1 pharmacokinetic profile was determined by LC-MS/MS in serum and tissues derived from n=3 mice/time point. Experimenters were blinded to treatment allocation.
In FIGS. 1A-1M the significance of overall trends was tested by Two-way ANOVA with repeated measures. […] The Bonferroni test was used to compare between Compound 1 and vehicle in a way which corrects for the multiple comparisons and is therefore very robust (since the threshold for determining significance at each time point is reduced in a manner inversely proportional to the number of comparisons). […] In FIGS. 4D and 6E the inventors used One Way ANOVA with Sidak's post-hoc correction for multiple comparisons. Other statistical tests used were Student t-tests.

[1] = Pharmacokinetics, tissue levels by LC-MS/MS; format: in vivo, mice; details: 250 mg/kg subcutaneous
Source text: FIGS. 2A-2C include images and graphs of histopathological effects of Compound 1 and its pharmacokinetics: right panel present images of indicated tissues of sacrificed mice and stained for PG (arrows) with PAS following treatment with diastase; left panel, presents bar graphs quantifying PAS staining, based on analysis of 4 sections from each tissue in n=2 wild type, n=7 Gbe^ys/ys vehicle-treated, and n=9 Compound 1-treated mice (2A); bar graph quantifying total glycogen in the respective tissues (2B); graph of Compound 1pharmacokinetics (2C); 9 months old Gbe^ys/ys mice were SC-injected with 150 μL of Compound 1 at 250 mg/kg. Mice were sacrificed 30-, 60-, 90-, and 210-min post injection and the indicated tissues were removed, as well as 200 μL of serum drawn. […] Shown are means and SEM of results obtained from n=3 mice at each time point.
For pharmacokinetic analysis, 100 μL serum as well as brain, kidney, hind limb quad muscle, heart, liver, and spleen tissues were collected, homogenized, and extracted with acetonitrile following established guidelines. Calibration curves were made with 0, 1, 10, 100, and 1,000 ng/ml Compound 1 in 1 mg/ml solutions of 4-tert-butyl-2-(4H-1,2,4-triazol-4-yl)phenol (ChemBridge) as internal standard (IS). Tissue samples were then dissolved in 1 mg/ml IS solutions and spiked with 0-1,000 ng/ml Compound 1 to generate standard curves from which tissue levels of Compound 1 were determined. Samples were analyzed by the LC-MS/MS Sciex Triple Quad™ 5500 mass spectrometer.
Pharmacokinetic analysis is instrumental for explaining the effects of Compound 1 in-situ regardless of its innate capacity to modify polyglucosans in isolated cells. The reason for that is that timing of arrival, distribution and stability in the tissue are key determinants of the in-situ activity of any pharmacological agent. To determine the distribution and kinetic parameters of Compound 1 in different tissues, the inventors have treated Gbe^ys/ys mice with 250 mg/kg Compound 1 via subcutaneous injection, as done in the efficacy experiments. Mice were then sacrificed 0, 30-, 60-, 90-, and 210-min post administration and 100 μL serum as well as brain, kidney, hind limb skeletal muscle, heart, liver, and spleen tissues were collected, homogenized, extracted and their Compound 1 levels were analyzed by liquid chromatography tandem mass spectrometry (LC-MS/MS). The differential effects of Compound 1 on glycogen and polyglucosan content in the different tissues match its differential distribution and dwell time in each respective tissue. […] However, those levels persist up until 60 minutes post injection, which might account for the Compound 1-mediated reduction in polyglucosan, and glycogen content observed in these tissues. […] Based on the sampling times used, time to C. was 30 min for all the tissues studied indicating similar rate of absorption to all these tissues. The highest C. is observed in liver and kidney matching their well-established rapid perfusion.

Compound: COCCN(Cc1sccc1C)C(=O)c1cc(C)nc(O)c1 [Compound 1]
- animal weight over time (Gbe^ys/ys mice; 250 mg/kg twice a week from age 4 months): mitigated the decline in animal weight over time
- animal survival (Gbe^ys/ys mice; 250 mg/kg twice a week from age 4 months, vs 5% DMSO vehicle): significantly improved animal survival
- ameliorating effect on open field, weight and overall extension reflex (Gbe^ys/ys mice; administered after disease onset at the age 6 months): ameliorating effect did not take place
- Extension reflex (Gbe^ys/ys mice; administered at onset (6 months), at the age of 9 months): only parameter improved by the compound from the advanced stage of the disease
- open field performance (Gbe^ys/ys mice; from 8 months, 134 days post injection): improved open field performance
- gait (stride length) (Gbe^ys/ys mice; mouse age of 9 months): improved gait, or increased stride length
- overall extension reflex (Gbe^ys/ys mice; throughout the study period, p<0.05): significantly improved
- C. in liver and kidney, rank among tissues [1]: highest
- C. in skeletal quadriceps muscle, rank among tissues [1]: lowest
- accumulation in muscle [1]: negligible accumulation
- levels in heart and brain [1]: intermediate levels
- persistence of levels in heart and brain post injection [1]: ≤ 60 min
- time to C. ([1]; all the tissues studied): 30 min
- half-life ([1]; mouse, liver, sc, Gbe^ys/ys mice): > 3 h
